Key:
Caco-2 cells [1] = experiment: LDH leakage cytotoxicity assay in Caco-2 cells; assay type: cell-based, human; details: 4 hours exposure
From the text: (§1) We initiated cytotoxicity experiments with the Caco-2, MDCKII-MDR1 and MDCKII-wild type cells on Day 7 (Caco-2) and Day 4 (MDCKII-MDR1 and MDCKII-wild type) after the initial plating of the cells at 2.5 × 10^3 cells/well in 48-well plates (Becton Dickinson, Franklin Lakes, NJ, USA). See details of preparation for the cytotoxicity experiments in Supplementary Material.
(§2) We initiated cytotoxicity experiments with the Caco-2, MDCKII-MDR1 and MDCKII-wild type cells on Day 7 (Caco-2) and Day 4 (MDCKII-MDR1 and MDCKII-wild type) after the initial plating of the cells at 2.5x10^3 cells/well in 48-well plates (Becton Dickinson, Franklin Lakes, NJ, USA). Stock solutions of 10 mM berberine or berbamine were prepared by dissolving the compounds in DMSO (berberine) or distilled water (berbamine).
(§3) The LDH enzymatic activities were assayed using the method of Mitchell et al.(1). […] Enzyme leakage into the medium was expressed as the percentage of total cellular LDH. The MTT (3-(4,5-dimethythiazole-2yl)-2,5-diphenyl tetrazolium bromide) reduction assay was done according to Mosmann (2). This assay was conducted immediately with the same cells used in the LDH study. The results were expressed as the percentage of negative controls.

MDCKII wild-type cells = experiment: MTT cytotoxicity assay in MDCKII wild-type cells; assay type: cell-based, Canine; details: MDCKII-WT cells, 4 hours exposure
From the text: as §1
(§4) We initiated cytotoxicity experiments with the Caco-2, MDCKII-MDR1 and MDCKII-wild type cells on Day 7 (Caco-2) and Day 4 (MDCKII-MDR1 and MDCKII-wild type) after the initial plating of the cells at 2.5x10^3 cells/well in 48-well plates (Becton Dickinson, Franklin Lakes, NJ, USA). Stock solutions of 10 mM berberine or berbamine were prepared by dissolving the compounds in DMSO (berberine) or distilled water (berbamine). […] The final concentration of DMSO was 0.003% (v/v), 0.03% (v/v), 0.3% (v/v), 1% (v/v), 1.5% (v/v), and 3% (v/v) DMSO/culture medium for 0.3 μM, 3 μM, 30 μM, 100 μM, ,150 μM, and 300 μM, respectively. The final concentration of ethanol was 0.15% (v/v) ethanol/culture medium. Ketoconazole (75 µM) was used as a positive control and no treatment (medium alone) was used as a negative control for each experiment.
as §3

Caco-2 cells [2] = experiment: MTT cytotoxicity assay in Caco-2 cells; assay type: cell-based, human; details: for MTT assay: 4 hours exposure
From the text: as §1, §2, §3

MDCKII-MDR1 cells = experiment: MTT cytotoxicity assay in MDCKII-MDR1 cells; assay type: cell-based, Canine; details: 4 hours exposure
From the text: as §1, §4, §3

Structure (SMILES): COc1ccc2cc3[n+](cc2c1OC)CCc1cc2c(cc1-3)OCO2.[Cl-] [Berberine, Berberine chloride]
- LDH assay (Caco-2 cells [1]; 150 µM): 25.93 ± 4.78%
- LDH assay (Caco-2 cells [1]; 300 µM): 44.88 ± 2.09%
- MTT assay (MDCKII wild-type cells; 0.03 µM): □ (%MTT reduction is not significantly decreased compared with the negative control)
- MTT assay (MDCKII wild-type cells; 3.0 µM): □ (%MTT reduction is not significantly decreased compared with the negative control)
- MTT assay (MDCKII wild-type cells; 100 µM): □ (%MTT reduction is not significantly decreased compared with the negative control)
- MTT assay (MDCKII wild-type cells; 150 µM): □ (%MTT reduction is not significantly decreased compared with the negative control)
- MTT assay (MDCKII wild-type cells; 300 µM): 24.82 ± 15.91%
- MTT assay (Caco-2 cells [2]; 0.03 µM): □ (%MTT reduction is not significantly decreased compared with the negative control)
- MTT assay (Caco-2 cells [2]; 3.0 µM): □ (%MTT reduction is not significantly decreased compared with the negative control)
- MTT assay (Caco-2 cells [2]; 100 µM): □ (%MTT reduction is not significantly decreased compared with the negative control)
- MTT assay (Caco-2 cells [2]; 150 µM): 76.37 ± 2.13%
- earliest time of significant increase in LDH leakage and decrease in MTT reduction (Caco-2 cells [2]; 150 µM, time-response 2, 4, 6, 8 hr, data not shown): 4 h
- MTT assay (Caco-2 cells [2]; 300 µM): 58.25 ± 6.37%
- MTT assay (Caco-2 cells [2]; 300 µM, listed as berberine): 58.25 ± 9.24%
- MTT assay (MDCKII-MDR1 cells; 0.03 µM): □ (%MTT reduction is not significantly decreased compared with the negative control)
- MTT assay (MDCKII-MDR1 cells; 3.0 µM): □ (%MTT reduction is not significantly decreased compared with the negative control)
- MTT assay (MDCKII-MDR1 cells; 100 µM): □ (%MTT reduction is not significantly decreased compared with the negative control)
- MTT assay (MDCKII-MDR1 cells; 150 µM): □ (%MTT reduction is not significantly decreased compared with the negative control)
- MTT assay (MDCKII-MDR1 cells; 300 µM): □ (%MTT reduction is not significantly decreased compared with the negative control)

From publication PMC10830684, “Effect of Oregon grape root extracts on P-glycoprotein mediated transport in in vitro cell lines” (Journal of Pharmacy & Pharmaceutical Sciences, 2024)
